Experimental data taken from PMC5011342, “A high throughput drug screening assay to identify compounds that promote oligodendrocyte differentiation using acutely dissociated and purified oligodendrocyte precursor cells” (BMC Research Notes, 2016).
Where two headings read alike, the source gives them in different places.

What was measured:
[1] = system: acutely dissociated and purified rat OPCs; assay: Acute OL differentiation assay (MBP expression/cell, immunofluorescent image quantification); assay type: cell-based
Procedure, shortened: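 This acute differentiation assay used purified rat OPCs from postnatal day 6–7 pups, seeded into PDL/laminin-coated 96-well plates in differentiation medium lacking PDGF and FGF. Compounds were applied in quadruplicate after a 1–2 h preincubation at 37 °C, 10 % CO2, with 0.1 % DMSO negative and 40 ng/ml T3 positive controls in eight wells. After fixation on DIV4, anti-MBP immunofluorescence images yielded MBP expression/cell.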

expanded OPCs = assay: cells; settings: for viability at 0.1 µM / viability at 1 µM / viability at 10 µM: Rattus norvegicus, 72 h
Procedure, shortened: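 Toxicity screen: compounds added at 0.1, 1 and 10 µM to PDGF-AA-expanded OPCs in 96-well plates, 3-day incubation at 37 °C, 10% CO2, then alamarBlue 1:10 for 4 h with fluorescence readout. Results set screening doses of 10/2, 2/0.4 or 0.4/0.08 µM.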

[2] = Rattus norvegicus, test compound at 2 uM; NCC library screen, sheet "All OLga data"; relative to quetiapine; read-out: 2 uM (% Quet)
[3] = Rattus norvegicus, test compound at 10 uM; NCC library screen, sheet "All OLga data"; relative to quetiapine; read-out: 10 uM (% Quet)
[4] = alamarBlue viability of expanded OPCs, compound at 0.1 µM, relative to DMSO control
[5] = alamarBlue viability of expanded OPCs, compound at 1 µM, relative to DMSO control
[6] = alamarBlue viability of expanded OPCs, compound at 10 µM, relative to DMSO control
[7] = read-out: 0.1 µM (% DMSO), alamarBlue viability, NCC library compound at 0.1 µM, sheet "All Tox data"
[8] = read-out: 1 µM (% DMSO), alamarBlue viability, NCC library compound at 1 µM, sheet "All Tox data"
[9] = read-out: 10 µM (% DMSO), alamarBlue viability, NCC library compound at 10 µM, sheet "All Tox data"
[10] = Rattus norvegicus, 2 uM test compound; relative to quetiapine; sheet "All OLga data"; read-out: OL differentiation, 2 uM (% Quet)
[11] = Rattus norvegicus, 10 uM test compound; relative to quetiapine; sheet "All OLga data"; read-out: OL differentiation, 10 uM (% Quet)
[12] = read-out: 0.1 µM (% DMSO), alamarBlue viability of expanded OPCs, compound at 0.1 µM, sheet All Tox data
[13] = read-out: 1 µM (% DMSO), alamarBlue viability of expanded OPCs, compound at 1 µM, sheet All Tox data
[14] = read-out: 10 µM (% DMSO), alamarBlue viability of expanded OPCs, compound at 10 µM, sheet All Tox data
[15] = Rattus norvegicus, 0.4 uM test compound; relative to quetiapine; sheet "All OLga data"; read-out: OL differentiation, 0.4 uM (% Quet)
[16] = ● = confirmed hit in this paper's assay
[17] = Rattus norvegicus, test compound at 0.4 uM; NCC library screen, sheet "All OLga data"; relative to quetiapine; read-out: 0.4 uM (% Quet)
[18] = Rattus norvegicus, test compound at 2 uM; MBP expression relative to quetiapine; NCC library screen, sheet "All OLga data"; read-out: 2 uM (% Quet)

SMILES | activation at 2 µM [1, 2] [%] | activation at 10 µM [1, 3] [%] | 0.1 µM (% DMSO) (expanded OPCs; [4]) | 1 µM (% DMSO) (expanded OPCs; [5]) | 10 µM (% DMSO) (expanded OPCs; [6]) | viability at 0.1 µM (expanded OPCs; [7]) [%] | viability at 1 µM (expanded OPCs; [8]) [%] | viability at 10 µM (expanded OPCs; [9]) [%] | other results
C[C@]12C=CC(=O)C=C1CC[C@@H]1[C@@H]2C(=O)C[C@@]2(C)[C@H]1CC[C@]2(O)C(=O)CO [Prednisone] | -4.5 | -47.4 | 88.8 | 89.0 | 86.2 | – | – | – | –
CCCNC(C)C(=O)Nc1ccccc1C (stereo not drawn) [Prilocaine] | 2.7 | -1.2 | 89.7 | 89.9 | 89.6 | – | – | – | –
COc1cc(NC(C)CCCN)c2ncccc2c1 (stereo not drawn) [Primaquine] | – | – | 90.1 | 66.2 | 32.4 | – | – | – | activation at 0.4 µM ([1]; Rattus norvegicus; read-out: 0.4 uM (% Quet)): -10%; activation at 2 µM ([1]; Rattus norvegicus; read-out: 2 uM (% Quet)): -37.5%
CCC1(c2ccccc2)C(=O)NCNC1=O [Primidone] | 1.4 | 15.6 | – | – | – | 86.9 | 89.5 | 82.3 | –
CCCN(CCC)S(=O)(=O)c1ccc(C(=O)O)cc1 [Probenecid] | 1.7 | -6.4 | – | – | – | 89.6 | 94.3 | 91.5 | –
CCN(CC)CCNC(=O)c1ccc(N)cc1 [Procainamide] | 0.4 | 19.7 | – | – | – | 106 | 111 | 120 | –
CCN(CC)CCOC(=O)c1ccc(N)cc1 [Procaine] | -5.2 | 7.7 | – | – | – | 121 | 145 | 146 | –
CNNCc1ccc(C(=O)NC(C)C)cc1 [Procarbazine] | – | – | – | – | – | – | – | – | activation at 2 µM [1, 10]: 0.13%; activation at 10 µM [1, 11]: -31.6%; viability at 0.1 µM (expanded OPCs; [12]): 82.3%; viability at 1 µM (expanded OPCs; [13]): 87.2%; viability at 10 µM (expanded OPCs; [14]): 96.6%
CN1CCN(CCCN2c3ccccc3Sc3ccc(Cl)cc32)CC1 [Prochlorperazine, reference compound] | – | – | – | – | – | – | – | – | activation at 0.4 µM [1, 15]: 110%; activation at 2 µM [1, 10]: -12.5%; hit in OL differentiation assay, MRF-TMC [1, 16]: ●; viability at 0.1 µM (expanded OPCs; [12]): 122%; viability at 1 µM (expanded OPCs; [13]): 107%; viability at 10 µM (expanded OPCs; [14]): 12.6%
OC(CCN1CCCC1)(c1ccccc1)C1CCCCC1 (stereo not drawn) [Procyclidine] | 11.1 | – | – | – | – | 86.1 | 70.8 | 56.9 | activation at 0.4 µM [1, 17]: 12%
CC(=O)[C@H]1CC[C@H]2[C@@H]3CCC4=CC(=O)CC[C@]4(C)[C@H]3CC[C@]12C [Progesterone] | – | – | – | – | – | – | – | – | activation at 2 µM [1, 10]: 21.9%; activation at 10 µM [1, 11]: 23.3%; viability at 0.1 µM (expanded OPCs; [12]): 88.2%; viability at 1 µM (expanded OPCs; [13]): 102%; viability at 10 µM (expanded OPCs; [14]): 113%
CC(CN1c2ccccc2Sc2ccccc21)N(C)C (stereo not drawn) [Promethazine] | – | – | 68.4 | 33.2 | 19.9 | – | – | – | activation at 0.08 µM ([1]; Rattus norvegicus, test compound at 0.08 uM; NCC library screen, sheet "All OLga data"; relative to quetiapine; read-out: 0.08 uM (% Quet)): -26.4%; activation at 0.4 µM [1, 17]: -33.6%
CCCNCC(O)COc1ccccc1C(=O)CCc1ccccc1 (stereo not drawn) [Propafenone] | -3.3 | – | 76.8 | 58.7 | 29.5 | – | – | – | activation at 0.4 µM [1, 17]: -15.2%
CC(C)[N+](C)(CCOC(=O)C1c2ccccc2Oc2ccccc21)C(C)C [Propantheline] | 36.4 | 90.8 | – | – | – | 91.7 | 112 | 148 | –
CC(C)c1cccc(C(C)C)c1O [Propofol] | – | – | – | – | – | – | – | – | activation at 2 µM ([1]; Rattus norvegicus, read-out: 2 uM (% Quet)): -0.9%; activation at 10 µM ([1]; Rattus norvegicus, read-out: 10 uM (% Quet)): 0.36%; 0.1 µM (% DMSO) (expanded OPCs; rat): 93.1 % DMSO; 1 µM (% DMSO) (expanded OPCs; rat): 85.9 % DMSO; 10 µM (% DMSO) (expanded OPCs; rat): 87.2 % DMSO
CC(C)NCC(O)COc1cccc2ccccc12 (stereo not drawn) [Propranolol] | – | – | 95.6 | 79.5 | 32.7 | – | – | – | activation at 0.4 µM ([1]; Rattus norvegicus, test compound at 0.4 uM; MBP expression relative to quetiapine; NCC library screen, sheet "All OLga data"; read-out: 0.4 uM (% Quet)): 0.38%; activation at 2 µM [1, 18]: -14.5%
CCCc1cc(=O)[nH]c(=S)[nH]1 [Propylthiouracil] | -0.9 | 11.7 | 90.3 | 95.9 | 90.8 | – | – | – | –
CCCOc1ccc(C(=O)OCCN(CC)CC)cc1N [Proxymetacaine, reference compound] | 75.8 | 97.5 | – | – | – | 128 | 179 | 163 | EC50 ([1]; Rattus norvegicus; average EC50 for induction of OL differentiation from independent biological replicates, eight concentrations): 1000 nM; hit in OL differentiation assay, MRF-TMC [1, 16]: ●
COc1cc(/C=C/c2ccc(O)cc2)cc(OC)c1 [Pterostilbene] | – | – | – | – | – | – | – | – | activation at 0.4 µM [1, 15]: -5.7%; activation at 2 µM [1, 10]: -7.7%; viability at 0.1 µM (expanded OPCs; [12]): 101%; viability at 1 µM (expanded OPCs; [13]): 62.5%; viability at 10 µM (expanded OPCs; [14]): 27.3%
NC(=O)c1cnccn1 [Pyrazinamide] | -8.1 | -1.1 | 89.2 | 94.5 | 87.7 | – | – | – | –
CN(C)C(=O)Oc1ccc[n+](C)c1 [Pyridostigmine Bromide] | -0.46 | 21.5 | 92.2 | 86.7 | 84.4 | – | – | – | –
CCc1nc(N)nc(N)c1-c1ccc(Cl)cc1 [Pyrimethamine] | -12.3 | -35.3 | – | – | – | 100 | 99.6 | 66.5 | –
OCCOCCN1CCN(C2=Nc3ccccc3Sc3ccccc32)CC1 [Quetiapine hemifumarate] | 130 | 87.7 | – | – | – | 118 | 149 | 117 | –
CCOC(=O)[C@H](CCc1ccccc1)N[C@@H](C)C(=O)N1Cc2ccccc2C[C@H]1C(=O)O [Quinapril] | – | – | 95.3 | 90.0 | 85.6 | – | – | – | activation at 2 µM [1, 18]: 2.2%; activation at 10 µM ([1]; Rattus norvegicus, test compound at 10 uM; MBP expression relative to quetiapine; NCC library screen, sheet "All OLga data"; read-out: 10 uM (% Quet)): -12.2%
